Assay results reported in PMC3681751, “Identification of a Novel Antimicrobial Peptide from Human Hepatitis B Virus Core Protein Arginine-Rich Domain (ARD)” (PLoS Pathogens, 2013).
Where two headings read alike, the source gives them in different places.

Legend:
[1] = test system: P. aeruginosa (ATCC 27853); type: cell-based, Pseudomonas aeruginosa; settings: ampicillin-resistant strain, triplicate
Summary of the method: (§1)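 Mid-log bacteria at 10^6 CFU/ml in 10 mM sodium phosphate, 50 mM NaCl, pH 7.2, exposed to serially diluted HBc ARD peptides for 3 h at 37 °C without shaking. Mixtures plated on Mueller-Hinton agar overnight to give minimal bactericidal concentration; triplicate tests.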

[2] = test system: P. aeruginosa (ATCC 9027); type: cell-based, Pseudomonas aeruginosa; settings: ampicillin-resistant strain, triplicate
Summary of the method: as §1

[3] = test system: K. pneumonia (ATCC 13884); type: cell-based, Klebsiella pneumoniae; settings: triplicate
E. coli (ATCC 25922) = type: cell-based, Escherichia coli; settings: triplicate
Summary of the method: as §1

S. aureus (ATCC 19636) = type: cell-based, Staphylococcus aureus; settings: methicillin-resistant strain, triplicate
Procedure: (§2) The antimicrobial activities of HBc ARD peptides were tested using a number of bacterial strains from ATCC, including Pseudomonas aeruginosa Migula strain (ATCC 27853, ampicillin-resistant), Pseudomonas aeruginosa Migula strain (ATCC 9027, ampicillin-resistant), Klebsiella pneumoniae strain (ATCC 17593), Escherichia coli strain (ATCC 25922), Staphylococcus aureus subsp. strain (ATCC 25923, methicillin-resistant), Staphylococcus aureus subsp. strain (ATCC 29213, methicillin-resistant), Staphylococcus aureus subsp. strain (ATCC 19636, methicillinresistant), and Candida albicans strain (ATCC 10231).
(§3) All peptides were purchased from Yao-Hong Biotechnology Inc. (Taipei, Taiwan). Vendors provided data of peptide characterizations, including HPLC and Mass (data not shown). Antimicrobial activity was determined as described with some modifications as detailed below. Bacteria were grown overnight in Mueller–Hinton broth (Difco) at 37°C, and during the mid-logarithmic phase, bacteria were diluted to 10^6 CFU (colony formation unit)/ml in phosphate buffer (10 mM sodium phosphate and 50 mM sodium chloride, pH 7.2). Peptides were serially diluted in the same buffer. Fifty microliter (µl) of bacteria was mixed with fifty µl of peptides at varying concentrations followed by incubation at 37°C for 3 hours without shaking. At the end of incubation, bacteria were placed on Mueller-Hinton broth agar plates, and allowed growth at 37°C overnight for measurement of minimal bactericidal concentration (MBC). […] All peptides were tested in triplicate.

S. aureus (ATCC 25923) = type: cell-based, Staphylococcus aureus; settings: methicillin-resistant strain, triplicate
Procedure: as §2, §3

S. aureus (ATCC 29213) = type: cell-based, Staphylococcus aureus; settings: methicillin-resistant strain, triplicate
Procedure: as §2, §3

C. albicans (ATCC 10231) = type: cell-based, Candida albicans; settings: fungi, triplicate
Procedure: as §2, §3

HEK293 cells = experiment: Cytotoxicity, MTT assay; type: cell-based, human; settings: 1 hour at 37°C; HBc147-183 at 100 µM, melittin at 3.125 µM; triplicates
Procedure: (§4) Cytotoxicity was measured for HepG2, Huh7, HEK293, and Vero cells by MTT assay. Cells were seeded at 10^4 cells/well in a 96-well plate and serial dilutions of peptides were added into each well. PBS was used as a negative control and melittin was used as a positive control. After 1 hour of incubation, the medium were replaced by fresh medium containing 10% MTT solution (Promega), and the plate was incubated for 4 hours in 5% CO2 at 37°C. The absorbance at the wavelength of 595 nm was measured by an ELISA reader (Bio-Rad model 680).

HepG2 cells = experiment: Cytotoxicity, MTT assay; type: cell-based, human; settings: 1 hour at 37°C; HBc147-183 at 100 µM, melittin at 3.125 µM; triplicates
Procedure: as §4

Huh7 cells = experiment: Cytotoxicity, MTT assay; type: cell-based, human; settings: 1 hour at 37°C; HBc147-183 at 100 µM, melittin at 3.125 µM; triplicates
Procedure: as §4

Vero cells = experiment: Cytotoxicity, MTT assay; type: cell-based, monkey; settings: 1 hour at 37°C; HBc147-183 at 100 µM, melittin at 3.125 µM; triplicates
Procedure: as §4

[4] = 3 h at 37°C in 10 mM sodium phosphate, 50 mM NaCl, pH 7.2, 10^6 CFU/ml, ND = not detectable
[5] = 3 h at 37°C in phosphate buffer pH 7.2

Which results are given for CC[C@H](C)[C@H](NC(=O)CN)C(=O)NCC(=O)N[C@@H](C)C(=O)N[C@H](C(=O)N[C@@H](CC(C)C)C(=O)N[C@@H](CCCCN)C(=O)N[C@H](C(=O)N[C@@H](CC(C)C)C(=O)N[C@H](C(=O)N[C@H](C(=O)NCC(=O)N[C@@H](CC(C)C)C(=O)N1CCC[C@H]1C(=O)N[C@@H](C)C(=O)N[C@@H](CC(C)C)C(=O)N[C@H](C(=O)N[C@@H](CO)C(=O)N[C@@H](Cc1c[nH]c2ccccc12)C(=O)N[C@H](C(=O)N[C@@H](CCCCN)C(=O)N[C@@H](CCCNC(=N)N)C(=O)N[C@@H](CCCCN)C(=O)N[C@@H](CCCNC(=N)N)C(=O)N[C@@H](CCC(N)=O)C(=O)N[C@@H](CCC(N)=O)C(N)=O)[C@@H](C)CC)[C@@H](C)CC)[C@@H](C)O)[C@@H](C)O)C(C)C)C(C)C [Melittin, reference compound]?
Antimicrobial activity, MBC [1, 4]: 2 µM; Antimicrobial activity, MBC [1, 5]: 5.7 µg/mL; Antimicrobial activity, MBC [2, 4]: 2 µM; Antimicrobial activity, MBC [2, 5]: 5.7 µg/mL; Antimicrobial activity, MBC [3, 4]: 2 µM; Antimicrobial activity, MBC [3, 5]: 5.7 µg/mL; Antimicrobial activity, MBC (E. coli (ATCC 25922); [4]): 2 µM; Antimicrobial activity, MBC (E. coli (ATCC 25922); [5]): 5.7 µg/mL; Antimicrobial activity, MBC (S. aureus (ATCC 19636); [4]): 1 µM; Antimicrobial activity, MBC (S. aureus (ATCC 19636); [5]): 2.85 µg/mL; Antimicrobial activity, MBC (S. aureus (ATCC 25923); [4]): 2 µM; Antimicrobial activity, MBC (S. aureus (ATCC 25923); [5]): 5.7 µg/mL; Antimicrobial activity, MBC (S. aureus (ATCC 29213); [4]): 1 µM; Antimicrobial activity, MBC (S. aureus (ATCC 29213); [5]): 2.85 µg/mL; Antimicrobial activity, MBC (C. albicans (ATCC 10231); 3 h at 37°C in 10 mM sodium phosphate, 50 mM NaCl, pH 7.2, ND = not detectable): 4 µM; Antimicrobial activity, MBC (C. albicans (ATCC 10231); [5]): 11.4 µg/mL; Cell viability / cytotoxicity (MTT) (HEK293 cells): significantly decreased; Cell viability / cytotoxicity (MTT) (HepG2 cells): significantly decreased; Cell viability / cytotoxicity (MTT) (Huh7 cells): significantly decreased; Cell viability / cytotoxicity (MTT) (Vero cells): significantly decreased
